Laboratory results published in patent US9360486B2, “Allergen fragments” (Biomay AG, priority 2007, dated 2016).

Tested on: Amb a 1-specific T cell lines (TCL)
Test: T cell epitope mapping of Amb a 1.3: proliferation (3H-thymidine uptake) of TCL stimulated with synthetic peptides
Format: cell-based, human
Details: for No. positive patients SI > 3 / No. positive patients SI > 5 / % (positive patients SI > 3) / % (positive patients SI > 5): TCL from 48 ragweed pollen-allergic patients, peptide 5 μg/ml; for No. positive patients SI > 3 / No. positive patients SI > 5: 3H-thymidine uptake after 48 hrs; for No. positive patients SI > 3 / % (positive patients SI > 3): stimulation index > 3; for No. positive patients SI > 5 / % (positive patients SI > 5): stimulation index > 5; for T cell activating region recognized by % of patients: classes of prevalence referring to SI>5, 48 TCL
Source text: The T cell response to Amb a 1 was characterized in detail using the established in vitro culture system (Jahn-Schmid et al., J. Immunol. 169: 6005-11, 2002; Jahn-Schmid et al., J. Allergy Clin. Immunol., 115: 399-404, 2005). In total, 85 clinically well-defined patients (75 from Vienna/10 from Milano) with typical case history, positive skin prick test and CAP/RAST tests for ragweed extract were included.
Peripheral blood mononuclear cells (PBMC) were isolated from heparinized blood of allergic patients by Ficoll density gradient centrifugation. To generate allergen-specific T cell lines (TCL) and T cell clones (TCC), 1.5×10^6 PBMC were stimulated with optimal doses of ragweed or mugwort extract (4 μg/ml) or rAmb a 1.3 (10 μg/ml) in 24-well flat-bottomed culture plates (Costar, USA). After 5 days human rIL-2 (10 U/ml, Boehringer, Mannheim, Germany) were added and cultures were continued for additional 7 days. Then, T cell blasts were isolated by density centrifugation. The majority of T cell blasts was further expanded with IL-2 and irradiated PBMC. A small number of T cell blasts were used to establish monoclonal T cell cultures by limiting dilution: 0.3 T cells/well were seeded into 96 well round bottom plates (Nunclone) in the presence of 2×10^5 irradiated (60 Gy) PBMC, 0.25% v/v PHA (Gibco, USA) and rIL-2 (4 U/well) in the medium mentioned above. After 14-21 days, growing microcultures were expanded at weekly intervals with irradiated PBMC and rIL-2. The specificity of TCC was assessed in proliferation assays using irradiated allogeneic or HLA-matched PBMC or irradiated EBV-transformed allogeneic B-cells and 5 μg/ml Amb a 1.3. After 48 hours, cellular uptake of tritiated (^3H)-thymidine was performed to measure proliferation in counts per minute (cpm). When the stimulation index (SI; ratio between cpm obtained in cultures containing TCC plus autologous APC plus antigen, and cpm obtained in cultures containing TCC and APC alone) was >10, responses were considered as positive. Allergen-specific TCC were expanded by alternating turns of stimulation with autologous irradiated APC and allergen or with allogeneic feeder cells and rIL-2.
Amb a 1-specific TCL and TCC were used to identify T cell epitopes of Amb a 1.3. T cell cultures were stimulated with a panel of 121 synthetic 12-mer peptides and one 13-mer representing the C-terminal peptide of Amb a 1.3 (Pepset, Biotrend, Germany). Peptides had been synthesized according to the Amb a 1.3 amino acid sequence and overlapped for 9 amino acid residues with the neighbouring peptides (Table 1). Peptides were used at a concentration of 5 μg/ml for stimulation and proliferation of T cell cultures was determined after 48 hrs by ^3H-thymidine-uptake. Because of the frequently observed high background caused by auto-reactivity in TCL, the mean of the cpm observed with the ten least stimulating peptides (none of the peptides was toxic) was used as negative control in calculations of SI. Throughout this manuscript, a peptide comprised one T cell epitope when the stimulation index was at least 3.0.
T cell epitope mapping of Amb a 1.3 was performed evaluating 48 TCL from different patients ([…]), which had been initiated with ragweed extract (containing the natural allergen) or rAmb a 1.3 (Table 2). TCL induced with either ragweed extract or rAmb a 1.3 from the same individual recognized similar T cell epitopes (Table 2; FIG. 7). […] Therefore, their data were combined for further analysis (Table 3). Typical for many inhalant allergens, multiple T cell activating regions were detected in Amb a 1.3. The number of peptides recognized by T cells from a single individual ranged from 2 to maximum 60 peptides with a mean of 17.8 peptides (median=16/for SI>3; resp. 0-36/11.9/12 for SI>5) (see Table 3). In total, 26 relevant (i.e. recognized by ≧10% of patients studied) T cell activating regions comprising 12-18 aa were identified. […]

FLAPDDQIKKNV (Amb a 1 fragment) [Peptide 97]
reactivity with T cells isolated from allergic individuals: reactivity with T cells | No. positive patients SI > 3: 6 | No. positive patients SI > 5: 4 | % (positive patients SI > 3): 12.5% | % (positive patients SI > 5): 8.3%

FQVVNNNYDRWG (Amb a 1 fragment) [Peptide 87]
reactivity with T cells isolated from allergic individuals: reactivity with T cells | No. positive patients SI > 3: 5 | No. positive patients SI > 5: 2 | % (positive patients SI > 3): 10.4% | % (positive patients SI > 5): 4.2%

GAAESMAWNWRS (Amb a 1 fragment) [Peptide 103]
No. positive patients SI > 3: 2 | No. positive patients SI > 5: 1 | % (positive patients SI > 3): 4.2% | % (positive patients SI > 5): 2.1%

GADDTHVQDKGM (Amb a 1 fragment) [Peptide 75]
No. positive patients SI > 3: 1 | No. positive patients SI > 5: 1 | % (positive patients SI > 3): 2.1% | % (positive patients SI > 5): 2.1%

GDVYTVTSNLDD (Amb a 1 fragment) [Peptide 21]
No. positive patients SI > 3: 2 | No. positive patients SI > 5: 1 | % (positive patients SI > 3): 4.2% | % (positive patients SI > 5): 2.1%

GEAAIKLTSSAG (Amb a 1 fragment) [Peptide 118]
reactivity with T cells isolated from allergic individuals: reactivity with T cells | No. positive patients SI > 3: 10 | No. positive patients SI > 5: 8 | % (positive patients SI > 3): 20.8% | % (positive patients SI > 5): 16.7%

GEAAIKLTSSAGVLSCRP (Amb a 1 fragment) [Peptide 118-120]
reactivity with T cells isolated from allergic individuals: reactivity with T cells | T cell activating region recognized by % of patients: recognized by 20.8%

GKWGDVYTVTSN (Amb a 1 fragment) [Peptide 20]
reactivity with T cells isolated from allergic individuals: reactivity with T cells | No. positive patients SI > 3: 9 | No. positive patients SI > 5: 7 | % (positive patients SI > 3): 18.8% | % (positive patients SI > 5): 14.6% | T cell activating region recognized by % of patients: recognized by 14.6%

GMIKSNDGPPIL (Amb a 1 fragment) [Peptide 52]
T cell reactivity with samples from individuals suffering from ragweed pollen allergy: high T cell reactivity | reactivity with T cells isolated from allergic individuals: reactivity with T cells | No. positive patients SI > 3: 31 | No. positive patients SI > 5: 27 | % (positive patients SI > 3): 64.6% | % (positive patients SI > 5): 56.3% | T cell activating region recognized by % of patients: recognized by 56.3%

GNRFLAPDDQIK (Amb a 1 fragment) [Peptide 96]
reactivity with T cells isolated from allergic individuals: reactivity with T cells | No. positive patients SI > 3: 5 | No. positive patients SI > 5: 4 | % (positive patients SI > 3): 10.4% | % (positive patients SI > 5): 8.3%

GRGVKVEIINGG (Amb a 1 fragment) [Peptide 40]
No. positive patients SI > 3: 3 | No. positive patients SI > 5: 4 | % (positive patients SI > 3): 6.3% | % (positive patients SI > 5): 8.3%

GSSQIWIDHCSL (Amb a 1 fragment) [Peptide 60]
reactivity with T cells isolated from allergic individuals: reactivity with T cells | No. positive patients SI > 3: 30 | No. positive patients SI > 5: 28 | % (positive patients SI > 3): 62.5% | % (positive patients SI > 5): 58.3%

GSSQIWIDHCSLSKS (Amb a 1 fragment) [Peptide 60-61]
reactivity with T cells isolated from allergic individuals: reactivity with T cells

GSTHVTISNCKF (Amb a 1 fragment) [Peptide 68]
T cell reactivity with samples from individuals suffering from ragweed pollen allergy: high T cell reactivity | reactivity with T cells isolated from allergic individuals: reactivity with T cells | No. positive patients SI > 3: 20 | No. positive patients SI > 5: 16 | % (positive patients SI > 3): 41.7% | % (positive patients SI > 5): 33.3% | T cell activating region recognized by % of patients: recognized by 33.3%

GVGEILPSVNET (Amb a 1 fragment) [Peptide 2]
No. positive patients SI > 3: 2 | No. positive patients SI > 5: 1 | % (positive patients SI > 3): 4.2% | % (positive patients SI > 5): 2.1%

HVTISNCKFTQQ (Amb a 1 fragment) [Peptide 69]
reactivity with T cells isolated from allergic individuals: reactivity with T cells | No. positive patients SI > 3: 8 | No. positive patients SI > 5: 4 | % (positive patients SI > 3): 16.7% | % (positive patients SI > 5): 8.3%

IDHCSLSKSFDG (Amb a 1 fragment) [Peptide 62]
No. positive patients SI > 3: 3 | No. positive patients SI > 5: 2 | % (positive patients SI > 3): 6.3% | % (positive patients SI > 5): 4.2%

IFVTSGSDPVLT (Amb a 1 fragment) [Peptide 110]
reactivity with T cells isolated from allergic individuals: reactivity with T cells | No. positive patients SI > 3: 13 | No. positive patients SI > 5: 11 | % (positive patients SI > 3): 27.1% | % (positive patients SI > 5): 22.9%

IGGSSAPTILCQ (Amb a 1 fragment) [Peptide 92]
No. positive patients SI > 3: 3 | No. positive patients SI > 5: 2 | % (positive patients SI > 3): 6.3% | % (positive patients SI > 5): 4.2%

IHDVKVLPGGMI (Amb a 1 fragment) [Peptide 49]
No. positive patients SI > 3: 3 | No. positive patients SI > 5: 2 | % (positive patients SI > 3): 6.3% | % (positive patients SI > 5): 4.2%

IIFKNDMVINLN (Amb a 1 fragment) [Peptide 32]
No. positive patients SI > 3: 2 | No. positive patients SI > 5: 1 | % (positive patients SI > 3): 4.2% | % (positive patients SI > 5): 2.1%

IIHNINIHDVKV (Amb a 1 fragment) [Peptide 47]
reactivity with T cells isolated from allergic individuals: reactivity with T cells | No. positive patients SI > 3: 14 | No. positive patients SI > 5: 10 | % (positive patients SI > 3): 29.2% | % (positive patients SI > 5): 20.8%

ILLGADDTHVQD (Amb a 1 fragment) [Peptide 74]
No. positive patients SI > 3: 3 | No. positive patients SI > 5: 1 | % (positive patients SI > 3): 6.3% | % (positive patients SI > 5): 2.1%
